Here are results for 5 cell lines from the supplement of paper PMC10307832.

Holding throughout (test): relative viability (nuclei count vs DMSO), 5 days (fraction); higher = more cells survive
Compound in test [1]: COc1ncc(-c2ccc3nccc(-c4ccnnc4)c3c2)cc1NS(=O)(=O)c1ccc(F)cc1F [Omipalisib] + CS(=O)(=O)N1CCN(Cc2cc3nc(-c4cccc5[nH]ncc45)nc(N4CCOCC4)c3s2)CC1 [Pictilisib] (partner 1 µM)
In a few lines: (§1)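 After 5 days of treatment, lung cancer cells in 1536-well plates were fixed and stained in a single step (final 0.05% Triton X-100, 1% formaldehyde, 1 ug/ml Hoechst) and their nuclei counted on 4× images. Treatment had been applied by pin tool the day after seeding as one drug alone or as a fixed anchor-drug dose with five library-drug doses (not always all listed) in √10 steps. Relative viability is the nuclei count of treated wells divided by that of vehicle wells, and values are medians of duplicate plates.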

Compound in test [2]: COc1ncc(-c2ccc3nccc(-c4ccnnc4)c3c2)cc1NS(=O)(=O)c1ccc(F)cc1F [Omipalisib] + N=C(N)NC(=N)NCCc1ccccc1 [Phenformin] (partner 250 µM)
Summed up:
as §1

Compound in test [3]: COc1ncc(-c2ccc3nccc(-c4ccnnc4)c3c2)cc1NS(=O)(=O)c1ccc(F)cc1F [Omipalisib] + O=C(CCCCCCC(=O)Nc1ccccc1)NO [Vorinostat] (partner 1 µM)
In a few lines:
as §1

Compound in test [4]: COc1ncc(-c2ccc3nccc(-c4ccnnc4)c3c2)cc1NS(=O)(=O)c1ccc(F)cc1F [Omipalisib] + CC(=O)c1c(C)c2cnc(Nc3ccc(N4CCNCC4)cn3)nc2n(C2CCCC2)c1=O [Palbociclib] (partner 0.5 µM)
Summed up:
as §1

Compound in test [5]: COc1ncc(-c2ccc3nccc(-c4ccnnc4)c3c2)cc1NS(=O)(=O)c1ccc(F)cc1F [Omipalisib] + Cc1nc(NC(=O)N2CCC[C@H]2C(N)=O)sc1-c1ccnc(C(C)(C)C(F)(F)F)c1 [Alpelisib] (partner 2 µM)
Summed up: as §1

Compound in test [6]: COc1ncc(-c2ccc3nccc(-c4ccnnc4)c3c2)cc1NS(=O)(=O)c1ccc(F)cc1F [Omipalisib] + CS(=O)(=O)CCNCc1ccc(-c2ccc3ncnc(Nc4ccc(OCc5cccc(F)c5)c(Cl)c4)c3c2)o1 [Lapatinib] (partner 2 µM)
In a few lines:
as §1

Take CAL-12T: the relative viability came to 0.579 in test [1] (first compound 0.0003 µM); 0.524 in test [1] (first compound 0.003 µM); 0.385 in test [1] (first compound 0.03 µM); 0.543 in test [2] (first compound 0.0003 µM); 0.573 in test [2] (first compound 0.003 µM); 0.361 in test [2] (first compound 0.03 µM). For the same cell line, the relative viability came to 0.666 in test [3] (first compound 0.0003 µM); 0.386 in test [3] (first compound 0.003 µM); 0.34 in test [3] (first compound 0.03 µM); 0.533 in test [4] (first compound 0.0003 µM); 0.415 in test [4] (first compound 0.003 µM); 0.142 in test [4] (first compound 0.03 µM). Moreover, the relative viability in test [5] (first compound 0.0003 µM) was 0.989; in test [5] (first compound 0.003 µM) it was 0.95; in test [5] (first compound 0.03 µM) it was 0.774; in test [6] (first compound 0.0003 µM), 0.787; in test [6] (first compound 0.003 µM), 0.496; in test [6] (first compound 0.03 µM) it was 0.475.

Consider NCI-H2087, for which the relative viability in test [1] (first compound 0.0003 µM) was 0.916; in test [1] (first compound 0.003 µM), 0.692; in test [1] (first compound 0.03 µM) it was 0.739; in test [2] (first compound 0.0003 µM), 0.43; in test [2] (first compound 0.003 µM), 0.267; in test [2] (first compound 0.03 µM) it was 0.289. The relative viability was 0.683 in test [3] (first compound 0.0003 µM); 0.549 in test [3] (first compound 0.003 µM); 0.29 in test [3] (first compound 0.03 µM); 0.247 in test [4] (first compound 0.0003 µM); 0.219 in test [4] (first compound 0.003 µM); 0.146 in test [4] (first compound 0.03 µM). For the same cell line, the relative viability in test [5] (first compound 0.0003 µM) was determined as 1.19; in test [5] (first compound 0.003 µM) it was 0.886; in test [5] (first compound 0.03 µM) it was 0.751; in test [6] (first compound 0.0003 µM) it was 1.34; in test [6] (first compound 0.003 µM), 0.955; in test [6] (first compound 0.03 µM), 0.747.

For the cell line NCI-H727, the relative viability in test [1] (first compound 0.0003 µM) was 0.321; in test [1] (first compound 0.003 µM), 0.361; in test [1] (first compound 0.03 µM) it was 0.231; in test [2] (first compound 0.0003 µM) it was 0.817; in test [2] (first compound 0.003 µM) it was 0.447; in test [2] (first compound 0.03 µM), 0.509. The relative viability is 1.1 in test [3] (first compound 0.0003 µM); 1.02 in test [3] (first compound 0.003 µM); 0.987 in test [3] (first compound 0.03 µM); 0.644 in test [4] (first compound 0.0003 µM); 0.487 in test [4] (first compound 0.003 µM); 0.552 in test [4] (first compound 0.03 µM). Moreover, the relative viability in test [5] (first compound 0.0003 µM) is 0.594; in test [5] (first compound 0.003 µM) it was 0.445; in test [5] (first compound 0.03 µM), 0.5; in test [6] (first compound 0.0003 µM), 0.723; in test [6] (first compound 0.003 µM) it was 0.776; in test [6] (first compound 0.03 µM), 0.674.

Regarding H3255, the relative viability was found to be 0.432 in test [1] (first compound 0.0003 µM); 0.439 in test [1] (first compound 0.003 µM); 0.293 in test [1] (first compound 0.03 µM); 0.365 in test [2] (first compound 0.0003 µM); 0.39 in test [2] (first compound 0.003 µM); 0.269 in test [2] (first compound 0.03 µM). The relative viability in test [3] (first compound 0.0003 µM) was found to be 0.811; in test [3] (first compound 0.003 µM) it was 0.623; in test [3] (first compound 0.03 µM), 0.269; in test [4] (first compound 0.0003 µM) it was 0.365; in test [4] (first compound 0.003 µM), 0.313; in test [4] (first compound 0.03 µM), 0.285. Further, the relative viability stood at 0.714 in test [5] (first compound 0.0003 µM); 0.606 in test [5] (first compound 0.003 µM); 0.444 in test [5] (first compound 0.03 µM); 0.219 in test [6] (first compound 0.0003 µM); 0.193 in test [6] (first compound 0.003 µM); 0.203 in test [6] (first compound 0.03 µM).

As for LXF-289, the relative viability in test [1] (first compound 0.0003 µM) was found to be 0.772; in test [1] (first compound 0.003 µM), 0.684; in test [1] (first compound 0.03 µM), 0.671; in test [2] (first compound 0.0003 µM), 0.505; in test [2] (first compound 0.003 µM), 0.416; in test [2] (first compound 0.03 µM), 0.396. For the same cell line, the relative viability in test [3] (first compound 0.0003 µM) amounted to 0.771; in test [3] (first compound 0.003 µM) it was 0.905; in test [3] (first compound 0.03 µM), 0.561; in test [4] (first compound 0.0003 µM) it was 0.62; in test [4] (first compound 0.003 µM), 0.574; in test [4] (first compound 0.03 µM) it was 0.416. The relative viability in test [5] (first compound 0.0003 µM) turned out to be 1.06; in test [5] (first compound 0.003 µM), 1.02; in test [5] (first compound 0.03 µM), 0.792; in test [6] (first compound 0.0003 µM), 0.894; in test [6] (first compound 0.003 µM), 0.956; in test [6] (first compound 0.03 µM), 0.785.
